# The supplement of paper PMC10307832
# Key:
# Assay in all cases: relative viability (nuclei count vs DMSO), 5 days (fraction); higher = more cells survive
# NCI-H661 = test system: NCI-H661
# Summary of the method: (§1)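 Nuclei were stained with Hoechst during a one-step fixation (final 0.05% Triton X-100, 1% formaldehyde, 1 ug/ml Hoechst) carried out 5 days after dosing, then counted on 4× images. The cells, lung cancer lines in 1536-well plates, had been dosed by pin tool the day after seeding with one drug alone or a fixed anchor-drug dose plus five library-drug doses (not always all listed) in √10 steps. Relative viability is the nuclei count in treated wells divided by that in vehicle wells, and each value is the median of duplicate plates.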
# HARA = test system: HARA
# Summary of the method: as §1
# NCI-H2023 = test system: NCI-H2023
# Summary of the method: as §1
# BEN = test system: BEN
# Summary of the method: as §1
# NCI-H1650 = test system: NCI-H1650
# Summary of the method: as §1
# SK-MES-1 = test system: SK-MES-1
# Summary of the method: as §1
# NCI-H358 = test system: NCI-H358
# Summary of the method: as §1
# HCC-44 = test system: HCC-44
# Summary of the method: as §1
# NCI-H1734 = test system: NCI-H1734
# Summary of the method: as §1
# NCI-H2087 = test system: NCI-H2087
# Summary of the method: as §1
# NCI-H650 = test system: NCI-H650
# Summary of the method: as §1
# LC-2-ad = test system: LC-2-ad
# Summary of the method: as §1
# HOP-62 = test system: HOP-62
# Summary of the method: as §1
# A-427 = test system: A-427
# Summary of the method: as §1
# LOU-NH91 = test system: LOU-NH91
# Summary of the method: as §1
# NCI-H3122 = test system: NCI-H3122
# Summary of the method: as §1
# NCI-H596 = test system: NCI-H596
# Summary of the method: as §1
# EKVX = test system: EKVX
# Summary of the method: as §1
# HCC-78 = test system: HCC-78
# Summary of the method: as §1
# LXF-289 = test system: LXF-289
# Summary of the method: as §1
# COR-L 105 = test system: COR-L 105
# Summary of the method: as §1
compound,measurement,setting,value
COCC1(CO)C(=O)C2CCN1CC2 (stereo not drawn) [PRIMA-1MET] + C[C@@H](Oc1cc(-c2cnn(C3CCNCC3)c2)cnc1N)c1c(Cl)ccc(F)c1Cl [Crizotinib] (partner 1 µM),relative viability,NCI-H661; first compound 0.2 µM,1.15
same,relative viability,NCI-H661; first compound 6.325 µM,1.11
same,relative viability,NCI-H661; first compound 20 µM,0.999
same,relative viability,HARA; first compound 0.2 µM,1.17
same,relative viability,HARA; first compound 0.6325 µM,1.04
same,relative viability,HARA; first compound 6.325 µM,0.987
same,relative viability,HARA; first compound 20 µM,0.99
same,relative viability,NCI-H2023; first compound 0.2 µM,0.764
same,relative viability,NCI-H2023; first compound 0.6325 µM,0.623
same,relative viability,NCI-H2023; first compound 2 µM,0.601
same,relative viability,NCI-H2023; first compound 6.325 µM,0.694
same,relative viability,NCI-H2023; first compound 20 µM,0.584
same,relative viability,BEN; first compound 0.2 µM,0.973
same,relative viability,BEN; first compound 0.6325 µM,0.88
same,relative viability,BEN; first compound 6.325 µM,0.974
same,relative viability,BEN; first compound 20 µM,0.735
same,relative viability,NCI-H1650; first compound 0.2 µM,1.22
same,relative viability,NCI-H1650; first compound 0.6325 µM,1.02
same,relative viability,NCI-H1650; first compound 2 µM,1
same,relative viability,NCI-H1650; first compound 6.325 µM,0.992
same,relative viability,NCI-H1650; first compound 20 µM,0.659
same,relative viability,SK-MES-1; first compound 0.2 µM,1.09
same,relative viability,SK-MES-1; first compound 0.6325 µM,0.968
same,relative viability,SK-MES-1; first compound 2 µM,1.03
same,relative viability,SK-MES-1; first compound 6.325 µM,0.943
same,relative viability,SK-MES-1; first compound 20 µM,0.997
same,relative viability,NCI-H358; first compound 0.2 µM,0.688
same,relative viability,NCI-H358; first compound 0.6325 µM,0.59
same,relative viability,NCI-H358; first compound 6.325 µM,0.526
same,relative viability,NCI-H358; first compound 20 µM,0.152
same,relative viability,HCC-44; first compound 0.2 µM,0.83
same,relative viability,HCC-44; first compound 0.6325 µM,0.67
same,relative viability,HCC-44; first compound 2 µM,0.867
same,relative viability,HCC-44; first compound 6.325 µM,0.86
same,relative viability,HCC-44; first compound 20 µM,0.807
same,relative viability,NCI-H1734; first compound 0.2 µM,0.696
same,relative viability,NCI-H1734; first compound 0.6325 µM,0.573
same,relative viability,NCI-H1734; first compound 2 µM,0.614
same,relative viability,NCI-H1734; first compound 6.325 µM,0.677
same,relative viability,NCI-H1734; first compound 20 µM,0.171
same,relative viability,NCI-H2087; first compound 0.2 µM,0.949
same,relative viability,NCI-H2087; first compound 0.6325 µM,0.751
same,relative viability,NCI-H2087; first compound 2 µM,0.474
same,relative viability,NCI-H2087; first compound 6.325 µM,0.794
same,relative viability,NCI-H2087; first compound 20 µM,0.805
same,relative viability,NCI-H650; first compound 0.2 µM,0.894
same,relative viability,NCI-H650; first compound 2 µM,0.616
same,relative viability,NCI-H650; first compound 6.325 µM,0.675
same,relative viability,NCI-H650; first compound 20 µM,0.109
same,relative viability,LC-2-ad; first compound 0.2 µM,0.484
same,relative viability,LC-2-ad; first compound 0.6325 µM,0.434
same,relative viability,LC-2-ad; first compound 2 µM,0.398
same,relative viability,LC-2-ad; first compound 6.325 µM,0.39
same,relative viability,LC-2-ad; first compound 20 µM,0.382
same,relative viability,HOP-62; first compound 0.2 µM,0.999
same,relative viability,HOP-62; first compound 0.6325 µM,0.76
same,relative viability,HOP-62; first compound 2 µM,0.666
same,relative viability,HOP-62; first compound 6.325 µM,0.969
same,relative viability,HOP-62; first compound 20 µM,0.768
same,relative viability,A-427; first compound 0.2 µM,0.935
same,relative viability,A-427; first compound 0.6325 µM,0.721
same,relative viability,A-427; first compound 2 µM,0.769
same,relative viability,A-427; first compound 6.325 µM,0.959
same,relative viability,A-427; first compound 20 µM,0.822
same,relative viability,LOU-NH91; first compound 0.2 µM,0.788
same,relative viability,LOU-NH91; first compound 0.6325 µM,0.583
same,relative viability,LOU-NH91; first compound 2 µM,0.743
same,relative viability,LOU-NH91; first compound 6.325 µM,0.773
same,relative viability,LOU-NH91; first compound 20 µM,0.681
same,relative viability,NCI-H3122; first compound 0.2 µM,0.317
same,relative viability,NCI-H3122; first compound 0.6325 µM,0.25
same,relative viability,NCI-H3122; first compound 2 µM,0.259
same,relative viability,NCI-H3122; first compound 6.325 µM,0.286
same,relative viability,NCI-H3122; first compound 20 µM,0.284
same,relative viability,NCI-H596; first compound 0.2 µM,1.08
same,relative viability,NCI-H596; first compound 0.6325 µM,0.962
same,relative viability,NCI-H596; first compound 2 µM,0.863
same,relative viability,NCI-H596; first compound 6.325 µM,1.04
same,relative viability,NCI-H596; first compound 20 µM,0.174
same,relative viability,EKVX; first compound 0.2 µM,1.11
same,relative viability,EKVX; first compound 0.6325 µM,0.893
same,relative viability,EKVX; first compound 2 µM,0.665
same,relative viability,EKVX; first compound 6.325 µM,0.997
same,relative viability,EKVX; first compound 20 µM,0.891
same,relative viability,HCC-78; first compound 0.2 µM,0.427
same,relative viability,HCC-78; first compound 0.6325 µM,0.34
same,relative viability,HCC-78; first compound 6.325 µM,0.353
same,relative viability,HCC-78; first compound 20 µM,0.0613
same,relative viability,LXF-289; first compound 0.2 µM,0.81
same,relative viability,LXF-289; first compound 0.6325 µM,0.869
same,relative viability,LXF-289; first compound 2 µM,0.871
same,relative viability,LXF-289; first compound 6.325 µM,0.815
same,relative viability,LXF-289; first compound 20 µM,0.767
same,relative viability,COR-L 105; first compound 0.2 µM,0.918
same,relative viability,COR-L 105; first compound 0.6325 µM,0.664
same,relative viability,COR-L 105; first compound 2 µM,0.74
same,relative viability,COR-L 105; first compound 6.325 µM,0.782
same,relative viability,COR-L 105; first compound 20 µM,0.254
